In the assay the test system is Mtb BioA overexpression strain (BioA-OE). As to the kind of experiment: microbe, parasite or virus in culture. It counts as cell-based, Mycobacterium tuberculosis.

As for `CC(=O)c1ccc(N2CCN(C(=O)c3ccc4c(c3)OCO4)CC2)cc1` [Compound 6, 1-(4-(4-(Benzo[d][1,3]dioxole-5-carbonyl)piperazin-1-yl)phenyl)-ethanone], the MIC (Mycobacterium tuberculosis, read-out: MIC that results in 90% inhibition, BioA-OE) was above 50 µM.
“(3-Chlorophenyl)(4-(5-methoxypyridin-2-yl)piperazin-1-yl)-methanone [Compound 22]”: the “MIC50 BioA-OE” value (MIC that results in 50% inhibition, […]) was above 50 µM.

For the origin of these results see publication PMC5590679 (Journal of medicinal chemistry, 2017).
